{"source": "patent US20190160084A1", "about": "“METHODS FOR THE TREATMENT OF CANCER USING MEGLUMINE” (Dynamis Pharmaceuticals, Inc., priority 2016, published 2019)", "key": {"skin tumors": {"tested_on": "skin tumors", "settings": "DFMO given during the promotion phase; cited from earlier work"}, "THP-1 cells": {"tested_on": "THP-1 cells", "experiment": "LPS-induced cytokine levels in media of THP-1 cells (Bio-Plex immunoassay)", "assay_type": "cell-based, human", "settings": "25 ng LPS, 40 or 80 mM meglumine hydrochloride, 24 hours", "method": "THP-1 cells (human acute monocytic leukemia) were grown in a 24-well polystyrene plate in 1 ml of RPMI media with 10% fetal bovine serum. Cells were treated with 25 ng of lipopolysaccharide (LPS) (Sigma) in the presence or absence of 40 or 80 mM meglumine hydrochloride. After 24 hours, the media was centrifuged to remove the cells and analyzed for cytokine content using a Bio-Plex® immunoassay (Bio-Rad). The LPS induced levels of IL-17, IL-8, MIP-1 alpha, MIP-1 beta, IL-9 and IP-10 were decreased in the presence of meglumine (FIG. 5)."}, "[1]": {"experiment": "Tolerability of meglumine in the drinking water (water consumption, adverse effects)", "assay_type": "in vivo", "settings": "37.5 mM meglumine in drinking water ad lib; K6/ODC transgenic mice and normal littermates", "method": "(§1) Upon weaning, K6/ODC transgenic mice and their normal littermates were divided into two treatment groups where they received ad lib either tap water or water with 37.5 mM meglumine (Sigma Chemical Co.) in their drinking water. Meglumine-containing water was changed twice a week. […] Mice were monitored for tumor development. Tumor growth was assessed morphometrically using calipers, and tumor volumes were calculated according to the formula V (mm^3)=π/6×A×B^2 (A is larger diameter, B is the smaller diameter) (Buzzai et al.)."}, "[2]": {"tested_on": "skin tumors in DMBA-initiated K6/ODC transgenic mice", "experiment": "Skin tumor formation and growth in DMBA-initiated K6/ODC transgenic mice, meglumine in drinking water", "assay_type": "in vivo", "method": "K6/ODC transgenic mice are highly susceptible to developing skin tumors following a single treatment with a low subthreshold dose of the carcinogen DMBA. The effect of oral administration of meglumine in the drinking water was tested on the formation and growth of skin tumors in DMBA-initiated K6/ODC transgenic mice and their normal littermates. Four day old K6/ODC transgenic mice and their normal littermates were initiated with a single topical application of 300 nmol DMBA in 50 μl acetone.\nas §1"}, "[3]": {"settings": "K6/ODC transgenic mice, compared to control water, monitored 4 months"}}}
{"smiles": "NCCC[C@](N)(C(=O)O)C(F)F", "note": "[DFMO, α-difluoromethylornithine]", "values": [{"measurement": "development of skin tumors", "setting": "skin tumors", "value": "inhibits"}]}
{"smiles": "CNC[C@H](O)[C@@H](O)[C@H](O)[C@H](O)CO.Cl", "note": "[meglumine hydrochloride]", "values": [{"measurement": "LPS induced level of IL-8", "setting": "THP-1 cells", "value": "decreased"}, {"measurement": "LPS induced level of IL-9", "setting": "THP-1 cells", "value": "decreased"}, {"measurement": "LPS induced level of IL-17", "setting": "THP-1 cells", "value": "decreased"}, {"measurement": "LPS induced level of IP-10", "setting": "THP-1 cells", "value": "decreased"}, {"measurement": "LPS induced level of MIP-1 alpha", "setting": "THP-1 cells", "value": "decreased"}, {"measurement": "LPS induced level of MIP-1 beta", "setting": "THP-1 cells", "value": "decreased"}]}
{"smiles": "CNC[C@H](O)[C@@H](O)[C@H](O)[C@H](O)CO", "note": "[meglumine, (2R,3R,4R,5S)-6-methylaminohexane-1,2,3,4,5-pentol]", "values": [{"measurement": "adverse effects (weight loss, lethargy, ruffed fur, diarrhea, or general malaise)", "setting": "[1]", "value": "nor did it have any adverse effects"}, {"measurement": "consumption of water", "setting": "[1]", "value": "did not affect"}, {"measurement": "age at which all mice had skin tumors", "setting": "[2]; K6/ODC transgenic mice (6/6), 37.5 mM meglumine in drinking water, control (5/5): 50 days", "value": "73 days of age"}, {"measurement": "age at which skin tumors first developed", "setting": "[2]; K6/ODC transgenic mice, 37.5 mM meglumine in drinking water, control tap water: 45 days", "value": "60 days of age"}, {"measurement": "numbers of skin tumors", "setting": "[2]; K6/ODC transgenic mice, at any given age, compared to control tap water, monitored 4 months", "value": "fewer"}, {"measurement": "cumulative tumor burden (average total tumor volume per mouse)", "setting": "[2]; [3]", "value": "lower"}, {"measurement": "tumor growth", "setting": "[2]; [3]", "value": "slowed"}, {"measurement": "skin tumor development in normal littermates", "setting": "[2]; normal littermates n=10, with or without meglumine-supplemented water, single subthreshold dose of DMBA", "value": "no normal littermates"}]}
